# Strand notation (5' to 3'): a small letter for the sugar, then the base; units joined by * are phosphorothioate-linked, units joined directly phosphodiester-linked; [ ] holds rarer units or linkages, { } end groups; capitals alone tell only the bases. e = 2'-O-(2-methoxyethyl) (MOE); [5mC] = 5-methylcytosine; d = 2'-deoxy (DNA)
# Legend:
# Factor 12 = Factor 12 activation in mouse plasma, Spectrozyme FXIIa amidolytic assay (Example 17); format: in vivo; conditions: for % F12 activation compared to the PBS control: 3 weeks, mouse plasma
# Description: The effect of antisense inhibition of PKK mRNA on Factor 12 protein activation was evaluated.
# Group 1 consisted of 8 mice and was treated with PBS administered subcutaneously twice a week for 3 weeks. No other treatment was administered to Group 1 which served as a control group to measure Factor 12 activation.
# Groups 2, 3, 4, 5, and 6 consisted of 8 mice each and were treated with 2.5 mg/kg, 5 mg/kg, 10 mg/kg, 20 mg/kg, or 40 mg/kg (corresponding to 5 mg/kg, 10 mg/kg, 20 mg/kg, 40 mg/kg, or 80 mg/kg per week), respectively of ISIS 482584 administered subcutaneously twice a week for 3 weeks. Groups 2-6 served as the treatment groups for measuring the effect of ISIS 482584 on Factor 12 activation.
# At the end of the treatment period, plasma was harvested from the mice for the Spectrozyme® Factor 12a based amidolytic assay for Factor 12 in plasma.
# Plasma (5 μL) was added to 85 μL of PBS with 1 μg/ml dextran sulfate (500 kDa) in a 96 well polypropelene microplate and the solution was incubated for 5 minutes at room temperature. Spectrozyme® FXIIa (10 μL of a 2 mM solution) and 0.2 mM KALLISTOP™ solution was added and the absorbance kinetic was measured at 405 nm. Factor 12 activation was measured in the linear phase of absorbance accumulation. The results are presented in Table 78 as a percentage of Factor 12 activation measured in the PBS control sample.
# [1] = Tail bleeding assay (Example 20); format: in vivo, mouse; conditions: BALB/c mice; for Bleeding: blood collected over 40 minutes
# Description: Tail-bleeding was measured to observe whether treatment with ISIS 482584 causes excess bleeding or hemorrhage in mice.
# Groups of 10 male BALB/c mice were treated with 10 mg/kg, 20 mg/kg, or 40 mg/kg of ISIS 482584, administered subcutaneously twice a week for 3 weeks (weekly doses of 20 mg/kg, 40 mg/kg, or 80 mg/kg). A control group of 8 BALB/c mice was treated with PBS, administered subcutaneously twice a week for 3 weeks.
# Two days after the final treatment of ISIS oligonucleotides or PBS, mice were placed in a tail bleeding chamber. Mice were anesthetized in the chamber with isoflurane. Then, a small piece of tail (approximately 4 mm from the tip) was cut with sterile scissors. The cut tail was immediately placed in a 15 mL Falcon tube filled with approximately 10 mL of 0.9% NaCl buffer solution warmed to 37° C. The blood was collected over the course of 40 minutes. The saline filled tubes were weighed both before and after bleeding.
# [2] = system: vascular permeability induced by ISIS 461756; assay: C1-INH antisense oligonucleotide-induced vascular permeability, Evans Blue OD600 (Example 18); format: in vivo, mouse
# Description: Vascular permeability induced by ISIS 461756, an antisense oligonucleotide which targets murine C1 inhibitor mRNA, increases vascular permeability in mice and replicates the pathology of hereditary angioedema. The effect of ISIS 482584 on this model was evaluated.
# One group of 8 mice was treated with 40 mg/kg ISIS 482584 administered subcutaneously twice a week for 3 weeks (weekly dose of 80 mg/kg). A second group of 8 mice was treated with 40 mg/kg of the control oligonucleotide, ISIS 141923, administered subcutaneously twice a week for 3 weeks (weekly dose of 80 mg/kg). A third group of 8 mice was treated with PBS administered subcutaneously twice a week for 3 weeks. On day 14, all the groups were treated with 12.5 mg/kg ISIS 461756 administered subcutaneously twice a week for 3 weeks (weekly dose of 25 mg/kg). A control group of mice was treated with PBS administered subcutaneously twice a week for 3 weeks but was not administered ISIS 461756.
# At the end of the treatment period, all the groups were injected with 30 mg/kg of Evans Blue solution into the tail vein. The mice were sacrificed 30 min after the Evans Blue solution administration and colons, feet, ears, and intestines were harvested. The liver was also harvested for RNA analysis.
# The harvested tissues from the feet, colon, and intestines were placed in formamide solution overnight to leach out the Evans Blue dye. The formamide solution containing feet tissue was heated to 55° C. and left overnight. The color intensity of the dye-infused formamide solution was then measured at OD600 nm. The data is presented in Table 80 as percent increase or reduction compared to the PBS control not treated with ISIS 461756.
# PKK protein = PKK protein in cynomolgus monkey plasma by ELISA (Example 8); format: in vivo; conditions: 40 mg/kg sc
# Description: Approximately 0.9 mL of blood was collected each time from all available animals at pre-dose, day 17, day 31, day 45, day 59, and day 73, and placed in tubes containing 3.2% sodium citrate. The tubes were centrifuged (3000 rpm for 10 min at room temperature) to obtain plasma. PKK protein levels were measured in the plasma by ELISA. The results are presented in Table 52, expressed as percentage inhibition compared to the PBS control levels.
# [3] = Hematological parameters in cynomolgus monkeys (Example 8); conditions: cynomolgus monkey, 40 mg/kg sc, day 87 or day 88
# Description: Prior to the study, the monkeys were kept in quarantine for a 30-day period, during which the animals were observed daily for general health. The monkeys were 2-4 years old and weighed between 2 and 4 kg. Ten groups of four randomly assigned male cynomolgus monkeys each were injected subcutaneously with ISIS oligonucleotide or PBS. PBS solution or ISIS oligonucleotides at a dose of 40 mg/kg were administered initially with a loading regimen consisting of four doses on the first week of the study (days 1, 3, 5, and 7), followed by a maintenance regimen consisting of once weekly administration starting on Day 14 (weeks 2 to 13). Subcutaneous injections were performed in clock-wise rotations at 4 sites on the back; one site per dose. The injection sites were delineated by tattoo, while sedated using ketamine, and were separated by a minimum of 3 cm.
# To evaluate any effect of ISIS oligonucleotides in cynomolgus monkeys on hematologic parameters, blood samples of approximately 1.2 mL of blood was collected pre-dose and on day 87 or day 88 from each of the available study animals in tubes containing K2-EDTA. Samples were analyzed for red blood cell (RBC) count, white blood cells (WBC) count, platelet count, hemoglobin content and hematocrit, using an ADVIA2120i hematology analyzer (SIEMENS, USA).
# [4] = Tolerability / clinical observation of cynomolgus monkeys (Example 8); format: in vivo, cynomolgus monkey; conditions: primates, Example 8
# Description: Cynomolgus monkeys were treated with ISIS antisense oligonucleotides selected from studies described above. Antisense oligonucleotide efficacy and tolerability were evaluated. The human antisense oligonucleotides tested are cross-reactive with the rhesus genomic sequence (GENBANK Accession No. NW_001118167.1 truncated from nucleotides 2358000 to 2391000 and designated herein as SEQ ID NO: 18).
# During the study period, the monkeys were observed a minimum of once daily for signs of illness or distress. Any animal experiencing more than momentary or slight pain or distress due to the treatment, injury or illness was promptly reported to the responsible veterinarian and the Study Director. Any animal in poor health or in a possible moribund condition was identified for further monitoring and possible euthanasia. […] The protocols described in the Example were approved by the Institutional Animal Care and Use Committee (IACUC).
# [5] = Evans Blue OD600, all groups ISIS 461756 25 mg/kg/wk, pretreatment PBS or oligonucleotide 80 mg/kg/wk
substance,measurement,setting,value
"ISIS 482584: 5-10-5 MOE gapmer targeting murine PKK, GGCATATTGGTTTTTGGAAT; SEQ ID NO: 2244 (antisense eG*eG*e[5mC]*eA*eT*dA*dT*dT*dG*dG*dT*dT*dT*dT*dT*eG*eG*eA*eA*eT)",% F12 activation compared to the PBS control,Factor 12; 5 mg/kg/wk sc,82%
same,% F12 activation compared to the PBS control,Factor 12; 10 mg/kg/wk sc,63%
same,% F12 activation compared to the PBS control,Factor 12; 20 mg/kg/wk sc,47%
same,% F12 activation compared to the PBS control,Factor 12; 40 mg/kg/wk sc,24%
same,% F12 activation compared to the PBS control,Factor 12; 80 mg/kg/wk sc,14%
same,activation of Factor 12,Factor 12; mouse plasma after 3 weeks s.c. treatment,decreased activation of Factor 12
same,Bleeding,[1]; 20 mg/kg/wk sc 3 weeks,0.03 mL
same,Bleeding,[1]; 40 mg/kg/wk sc 3 weeks,0.14 mL
same,Bleeding,[1]; 80 mg/kg/wk sc 3 weeks,0.07 mL
same,tail bleeding,[1]; 10-40 mg/kg s.c. twice a week for 3 weeks,did not significantly affect bleeding
same,vascular permeability induced by ISIS 461756,[2]; 40 mg/kg s.c. twice a week for 3 weeks,prevented vascular permeability induced by ISIS 461756
same,"Percent change in vascular permeability compared to the untreated PBS control, Colon",[2]; [5],−23%
same,"Percent change in vascular permeability compared to the untreated PBS control, Feet",[2]; [5],2%
same,"Percent change in vascular permeability compared to the untreated PBS control, Intestines",[2]; [5],−25%
Tes Ges mCes Aes Aes Gds Tds mCds Tds mCds Tds Tds Gds Gds mCds Aes Aes Aes mCes Ae [ISIS 546254],PKK protein level reduction (%) in plasma relative to control levels,PKK protein; Day 17,38%
same,PKK protein level reduction (%) in plasma relative to control levels,PKK protein; Day 31,51%
same,PKK protein level reduction (%) in plasma relative to control levels,PKK protein; Day 45,63%
same,PKK protein level reduction (%) in plasma relative to control levels,PKK protein; Day 59,74%
same,PKK protein level reduction (%) in plasma relative to control levels,PKK protein; Day 73,73%
same,HCT,[3],41%
same,Hemoglobin,[3],12.4 g/dL
same,Platelets,[3],436000 µL⁻¹
same,RBC,[3],5.3e+06 µL⁻¹
same,WBC,[3],11000 µL⁻¹
same,tolerability in primates,[4],tolerable in primates
